# Assay results: ChEMBL document CHEMBL2440076, “New triarylpyrazoles as broad-spectrum anticancer agents: design, synthesis, and biological evaluation” (Eur J Med Chem, 2013)
# Key:
# [1] = system: HL-60(TB); assay: Growth inhibition of human HL-60(TB) cells after 48 hrs by sulforhodamine B assay; assay type: functional; conditions: HL-60, 48 h; for CC50: read-out: LC50 (the source's name)
# [2] = system: NCI-H322M; assay: Growth inhibition of human NCI-H322M cells after 48 hrs by sulforhodamine B assay; assay type: functional; conditions: for CC50: read-out: LC50 (the source's name)
# [3] = system: SK-MEL-2; assay: Growth inhibition of human SK-MEL-2 cells after 48 hrs by sulforhodamine B assay; assay type: functional; conditions: SK-MEL-2, 48 h
# [4] = system: T47D; assay: Growth inhibition of human T47D cells assessed as cell growth at 10 uM after 48 hrs by sulforhodamine B assay; assay type: functional; conditions: read-out: Activity
# [5] = system: RXF 393; assay: Growth inhibition of human RXF393 cells after 48 hrs by sulforhodamine B assay; assay type: functional; conditions: RXF 393, 48 h
# [6] = system: SK-MEL-28; assay: Growth inhibition of human SK-MEL-28 cells assessed as cell growth at 10 uM after 48 hrs by sulforhodamine B assay; assay type: functional; conditions: SK-MEL-28, 48 h, read-out: Activity
# [7] = system: MOLT-4; assay: Growth inhibition of human MOLT4 cells after 48 hrs by sulforhodamine B assay; assay type: functional; conditions: MOLT-4, 48 h; for CC50: read-out: LC50 (the source's name)
# [8] = system: MCF7; assay: Growth inhibition of human MCF7 cells after 48 hrs by sulforhodamine B assay; assay type: functional; conditions: MCF7, 48 h
# [9] = system: MDA-MB-231; assay: Growth inhibition of human MDA-MB-231 cells after 48 hrs by sulforhodamine B assay; assay type: functional; conditions: MDA-MB-231, 48 h
# [10] = system: PC-3; assay: Growth inhibition of human PC3 cells after 48 hrs by sulforhodamine B assay; assay type: functional, cell-based; conditions: PC-3, 48 h; for CC50: read-out: LC50 (the source's name)
# [11] = system: HOP-62; assay: Growth inhibition of human HOP62 cells assessed as cell growth at 10 uM after 48 hrs by sulforhodamine B assay; assay type: functional; conditions: HOP-62, 48 h, read-out: Activity
# [12] = system: OVCAR-5; assay: Growth inhibition of human OVCAR5 cells assessed as cell growth at 10 uM after 48 hrs by sulforhodamine B assay; assay type: functional; conditions: OVCAR-5, 48 h, read-out: Activity
# [13] = system: NCI-H23; assay: Growth inhibition of human NCI-H23 cells assessed as cell growth at 10 uM after 48 hrs by sulforhodamine B assay; assay type: functional; conditions: NCI-H23, 48 h, read-out: Activity
# [14] = system: NCI-H460; assay: Growth inhibition of human NCI-H460 cells after 48 hrs by sulforhodamine B assay; assay type: functional; conditions: NCI-H460, 48 h
# [15] = system: DU-145; assay: Growth inhibition of human DU145 cells assessed as cell growth at 10 uM after 48 hrs by sulforhodamine B assay; assay type: functional; conditions: DU-145, 48 h, read-out: Activity
# [16] = system: MDA-MB-231; assay: Growth inhibition of human MDA-MB-231 cells assessed as cell growth at 10 uM after 48 hrs by sulforhodamine B assay; assay type: functional; conditions: MDA-MB-231, 48 h, read-out: Activity
# [17] = system: SF-295; assay: Growth inhibition of human SF295 cells after 48 hrs by sulforhodamine B assay; assay type: functional, cell-based; conditions: SF-295, 48 h; for CC50: read-out: LC50 (the source's name)
# [18] = system: KM12; assay: Growth inhibition of human KM12 cells after 48 hrs by sulforhodamine B assay; assay type: functional, cell-based; conditions: KM12, 48 h; for CC50: read-out: LC50 (the source's name)
# [19] = system: RPMI-8226; assay: Growth inhibition of human RPMI8226 cells assessed as cell growth at 10 uM after 48 hrs by sulforhodamine B assay; assay type: functional; conditions: RPMI-8226, 48 h, read-out: Activity
# [20] = system: BT-549; assay: Growth inhibition of human BT549 cells after 48 hrs by sulforhodamine B assay; assay type: functional; conditions: BT-549, 48 h
# [21] = system: CCRF-CEM; assay: Growth inhibition of human CCRF-CEM cells after 48 hrs by sulforhodamine B assay; assay type: functional
# [22] = system: MDA-MB-435; assay: Growth inhibition of human MDA-MB-435 cells after 48 hrs by sulforhodamine B assay; assay type: functional, cell-based; conditions: MDA-MB-435, 48 h; for CC50: read-out: LC50 (the source's name)
# [23] = Growth inhibition of human Hs 578T cells after 48 hrs by sulforhodamine B assay; assay type: functional; conditions: for CC50: read-out: LC50 (the source's name)
# [24] = system: K562; assay: Growth inhibition of human K562 cells assessed as cell growth at 10 uM after 48 hrs by sulforhodamine B assay; assay type: functional; conditions: K562, 48 h, read-out: Activity
# [25] = system: OVCAR-5; assay: Growth inhibition of human OVCAR5 cells after 48 hrs by sulforhodamine B assay; assay type: functional; conditions: OVCAR-5, 48 h
# [26] = system: U-251; assay: Growth inhibition of human U251 cells assessed as cell growth at 10 uM after 48 hrs by sulforhodamine B assay; assay type: functional; conditions: U-251, 48 h, read-out: Activity
# [27] = system: SF-268; assay: Growth inhibition of human SF268 cells assessed as cell growth at 10 uM after 48 hrs by sulforhodamine B assay; assay type: functional; conditions: SF-268, 48 h, read-out: Activity
# [28] = system: COLO 205; assay: Growth inhibition of human COLO205 cells assessed as cell growth at 10 uM after 48 hrs by sulforhodamine B assay; assay type: functional; conditions: COLO 205, 48 h, read-out: Activity
# [29] = Growth inhibition of human NCI-ADR-RES cells after 48 hrs by sulforhodamine B assay; assay type: functional; conditions: for CC50: read-out: LC50 (the source's name)
# [30] = system: M14; assay: Growth inhibition of human M14 cells assessed as cell growth at 10 uM after 48 hrs by sulforhodamine B assay; assay type: functional; conditions: M14, 48 h, read-out: Activity
# [31] = system: UACC-257; assay: Growth inhibition of human UACC257 cells after 48 hrs by sulforhodamine B assay; assay type: functional; conditions: UACC-257, 48 h; for CC50: read-out: LC50 (the source's name)
# [32] = system: SW-620; assay: Growth inhibition of human SW620 cells assessed as cell growth at 10 uM after 48 hrs by sulforhodamine B assay; assay type: functional; conditions: SW-620, 48 h, read-out: Activity
# [33] = system: IGROV-1; assay: Growth inhibition of human IGROV1 cells after 48 hrs by sulforhodamine B assay; assay type: functional; conditions: IGROV-1, 48 h
smiles,measurement,setting,value
O=C(Nc1cccc(-n2cc(-c3ccncc3)c(-c3ccc(Cl)c(O)c3)n2)c1)Nc1cc(C(F)(F)F)cc(C(F)(F)F)c1,GI50,[1],1.5 µM
same,TGI,[1],13.5 µM
same,CC50,[1],> 50 µM
same,GI50,[2],1.31 µM
same,TGI,[2],5.39 µM
same,CC50,[2],23.6 µM
same,GI50,[3],1.25 µM
same,LC50 (50% lethal concentration),[3],14.1 µM
same,TGI,[3],3.03 µM
same,growth at 10 µM,[4],12.1%
same,GI50,[5],0.937 µM
same,LC50 (concentration killing 50% of cells),[5],10.7 µM
same,TGI,[5],2.49 µM
same,growth at 10 µM,[6],-62.4%
same,GI50,[7],1.15 µM
same,TGI,[7],4.36 µM
same,CC50,[7],> 50 µM
same,GI50,[8],0.54 µM
same,LC50,[8],31.5 µM
same,TGI,[8],5.79 µM
same,GI50,[9],0.739 µM
same,LC50,[9],3.72 µM
same,TGI,[9],1.66 µM
same,GI50,[10],0.319 µM
same,IC50,[10],0.32 µM
same,TGI,[10],4.37 µM
same,CC50,[10],> 50 µM
same,growth at 10 µM,[11],-86.1%
same,growth at 10 µM,[12],-32.9%
same,growth at 10 µM,[13],-7.93%
same,GI50,[14],0.413 µM
same,LC50,[14],4.86 µM
same,TGI,[14],1.48 µM
same,growth at 10 µM,[15],-28.2%
same,growth at 10 µM,[16],-88.9%
same,GI50,[17],0.618 µM
same,IC50,[17],0.62 µM
same,TGI,[17],1.65 µM
same,CC50,[17],4.39 µM
same,GI50,[18],0.506 µM
same,IC50,[18],0.51 µM
same,TGI,[18],1.43 µM
same,CC50,[18],4.06 µM
same,growth at 10 µM,[19],-10.9%
same,GI50,[20],1.09 µM
same,LC50 (50% lethal concentration),[20],4.11 µM
same,TGI,[20],2.12 µM
same,GI50,[21],0.789 µM
same,LC50,[21],> 50 µM
same,TGI,[21],6.78 µM
same,GI50,[22],0.91 µM
same,IC50,[22],0.91 µM
same,TGI,[22],2.59 µM
same,CC50,[22],15.6 µM
same,GI50,[23],1.14 µM
same,TGI,[23],4.08 µM
same,CC50,[23],> 50 µM
same,growth at 10 µM,[24],-19.6%
same,GI50,[25],0.875 µM
same,LC50 (concentration killing 50% of cells),[25],4.7 µM
same,TGI,[25],2.03 µM
same,growth at 10 µM,[26],-83.8%
same,growth at 10 µM,[27],-36.4%
same,growth at 10 µM,[28],-97.3%
same,GI50,[29],1.07 µM
same,TGI,[29],5.25 µM
same,CC50,[29],38.7 µM
same,growth at 10 µM,[30],-37.2%
same,GI50,[31],0.965 µM
same,TGI,[31],2.55 µM
same,CC50,[31],10.6 µM
same,growth at 10 µM,[32],3.32%
same,GI50,[33],0.896 µM
same,LC50 (concentration killing 50% of cells),[33],38.2 µM
same,TGI,[33],3.55 µM
O=C(Nc1cccc(-n2cc(-c3ccncc3)c(-c3ccc(Cl)c(O)c3)n2)c1)Nc1cccc(C(F)(F)F)c1,GI50,[1],1.45 µM
same,TGI,[1],> 32.5 µM
same,CC50,[1],> 32.5 µM
same,GI50,[2],6.41 µM
same,TGI,[2],> 32.5 µM
same,CC50,[2],> 32.5 µM
same,GI50,[3],2.02 µM
same,LC50 (50% lethal concentration),[3],> 32.5 µM
same,TGI,[3],10.8 µM
same,growth at 10 µM,[4],18.5%
same,GI50,[5],3.02 µM
same,LC50 (concentration killing 50% of cells),[5],> 32.5 µM
same,TGI,[5],12 µM
same,growth at 10 µM,[6],29.4%
same,GI50,[7],1.92 µM
same,TGI,[7],> 32.5 µM
same,CC50,[7],> 32.5 µM
same,GI50,[8],1.34 µM
same,LC50,[8],> 32.5 µM
same,TGI,[8],> 32.5 µM
same,GI50,[9],3.59 µM
same,LC50,[9],> 32.5 µM
same,TGI,[9],26.8 µM
same,GI50,[10],0.948 µM
same,IC50,[10],0.95 µM
same,TGI,[10],22.5 µM
same,CC50,[10],> 32.5 µM
same,growth at 10 µM,[11],38.1%
same,growth at 10 µM,[12],62.4%
same,growth at 10 µM,[13],14.6%
same,GI50,[14],1.18 µM
same,LC50,[14],> 32.5 µM
same,TGI,[14],29 µM
same,growth at 10 µM,[15],23.1%
same,growth at 10 µM,[16],21.3%
same,GI50,[17],0.962 µM
same,IC50,[17],0.96 µM
same,TGI,[17],4.26 µM
same,CC50,[17],29.2 µM
same,GI50,[18],1.33 µM
same,TGI,[18],> 32.5 µM
same,CC50,[18],> 32.5 µM
same,growth at 10 µM,[19],1.63%
same,GI50,[20],6.51 µM
same,LC50 (50% lethal concentration),[20],> 32.5 µM
same,TGI,[20],21.4 µM
same,GI50,[21],1.4 µM
same,LC50,[21],> 32.5 µM
same,TGI,[21],> 32.5 µM
same,GI50,[22],1.49 µM
same,IC50,[22],1.49 µM
same,TGI,[22],12.6 µM
same,CC50,[22],> 32.5 µM
same,GI50,[23],3.31 µM
same,TGI,[23],> 32.5 µM
same,CC50,[23],> 32.5 µM
same,growth at 10 µM,[24],13.4%
same,GI50,[25],13.7 µM
same,LC50 (concentration killing 50% of cells),[25],> 32.5 µM
same,TGI,[25],> 32.5 µM
same,growth at 10 µM,[26],15.8%
same,growth at 10 µM,[27],28.5%
same,growth at 10 µM,[28],94.2%
same,GI50,[29],2.14 µM
same,TGI,[29],> 32.5 µM
same,CC50,[29],> 32.5 µM
same,growth at 10 µM,[30],16.6%
same,GI50,[31],4.34 µM
same,TGI,[31],19.1 µM
same,CC50,[31],> 32.5 µM
same,growth at 10 µM,[32],28.5%
same,GI50,[33],1.64 µM
same,LC50 (concentration killing 50% of cells),[33],> 32.5 µM
same,TGI,[33],> 32.5 µM
